≈ marks a conversion by molar mass, not a printed value. Where “and” joins values, the source holds several entries; their conditions need not be identical. Identical values can stand only once. Like-named read-outs stand apart in the source and are kept apart here.

The test system of data set [1] is Plasmodium falciparum (intra erythrocytic forms, NF54 IEF strain). Nature of the data set: In vitro activity against P. falciparum intra-erythrocytic forms (NF54). Conditions: NF54, read-out: IC50 Pf (crude extracts). Format: cell-based.
Data set [2] is described as follows: Cytotoxicity test against mammalian cells (L6). The note with it: rat.
In data set [3] the test system is Trypanosoma brucei rhodesiense (bloodstream trypomastigotes, STIB 900 strain). Nature of the data set: In vitro activity against T. b. rhodesiense bloodstream trypomastigotes (STIB 900). Type of data set: cell-based. The note with it: for SI (selectivity index): ratio of cytotoxic (L6) over antiprotozoal (Tbr) IC50 values.
Data set [4] relates to P. falciparum (multidrug resistance strain K1). Set-up: method as in PMID 24242110. The note with it: cited from earlier work.
For data set [5], the system named is P. falciparum chloroquine sensitive strain PoW. Set-up: method as in PMID 12601673. The note with it: cited from earlier work.
For data set [6], the system named is P. falciparum chloroquine-resistant strain Dd2. Set-up: method as in PMID 12601673. Conditions: cited from earlier work.
Data set [7] deals with Leishmania donovani (amastigotes, MHOM-ET-67/L82 strain). Description: In vitro activity against L. donovani amastigotes (MHOM-ET-67/L82). Type of data set: cell-based. Conditions: Table 1, MHOM-ET-67/L82 amastigotes, values marked a: only one replicate, others mean of two ± SD, read-out: IC50 Ldon (crude extracts).
The mark [8] stands for this setting: Table 3, STIB 900 trypomastigotes, pure compounds, read-out: IC50 Tbr (elemanolides), value in brackets (converted).
Where [9] appears, read: Trypanosoma brucei, Table 3, STIB 900 trypomastigotes, pure compounds, read-out: IC50 Tbr (elemanolides), value in brackets (converted).
The mark [10] stands for this setting: Trypanosoma brucei, Table 3, STIB 900 trypomastigotes, read-out: IC50 Tbr (elemanolides).

Take `CCN(CC)CCCC(C)Nc1ccnc2cc(Cl)ccc12` (stereo not drawn) [chloroquine]: the IC50 (as a rule, the concentration at which inhibition is half-maximal) in data set [1] came to 0.002 µg/mL (≈ 0.00625 µM).
As for `C=C[C@@]12COC(=O)C(=C)[C@@H]1[C@H]1OC(=O)C(=C)[C@@H]1[C@@H](O)C2` [Compound 2, Vernolepin], the IC50 in data set [2] was 0.735 µg/mL and 2.68 µM; in data set [3] (setting [8]) it was 185 nM; in data set [3] (setting [9]), 190 nM; in data set [3] (setting [10]), 0.05 µg/mL. In addition, the “IC50 Tbr (elemanolides)” value in data set [3] (Table 3, STIB 900 trypomastigotes) amounted to 0.051 ± 0.035 µg/mL (≈ 0.185 µM). The “SI (selectivity index)” value in data set [3] was found to be 14.5. In data set [3] (versus DCM crude extract), the “times more active than the crude extract (Tbr)” value is “approximately 3.5”.
`C=C[C@@]12COC(=O)C(=C)[C@@H]1[C@@H](O)[C@H](C(=C)C(=O)OC)[C@@H](OC(=O)C(=C)CO)C2` [Compound 4, Vernodalol]: the IC50 is 1.44 µg/mL and 3.67 µM in data set [2] (L6 rat skeletal myoblast cells); 255 nM in data set [3] (setting [8]); 260 nM in data set [3] (setting [9]); 0.1 ± 0.041 µg/mL in data set [3] (setting [10]). Further, the “factor by which more active than compound 1 (Tbr)” value in data set [3] (compound 4 versus compound 1) is around 10. The “SI (selectivity index)” value in data set [3] amounted to 14.4. For the same molecule, the “IC50 anti-plasmodial activity, P. falciparum K1” value in data set [4] was 4.2 µg/mL (≈ 10.7 µM).
With `C=C[C@@]12COC(=O)C(=C)[C@@H]1[C@@H](O)[C@@H]1C(=C)C(=O)O[C@H]1C2` [Compound 3, Vernomenin], the IC50 in data set [2] was 0.62 µg/mL and 2.26 µM; in data set [3] (setting [9]), 508 nM; in data set [3] (setting [10]) it was 0.14 ± 0.1 µg/mL. For the same molecule, the “SI (selectivity index)” value in data set [3] was found to be 4.50.
As to `C=CC12COC(=O)C(=C)C1C(O)C(C(=C)C(=O)OC)C(O)C2` (stereo not drawn) [Compound 1, 8-Desacylvernodalol], the IC50 in data set [2] (L6 rat skeletal myoblast cells) is 10.7 µg/mL and 34.6 µM; in data set [3] (setting [8]), 2530 nM; in data set [3] (setting [9]), 2500 nM; in data set [3] (setting [10]), 0.779 ± 0.22 µg/mL. In addition, the “SI (selectivity index)” value in data set [3] came out at 13.7.
The molecule `COc1cc([C@@H]2c3cc4c(cc3[C@H](O)[C@H]3COC(=O)[C@H]23)OCO4)cc(OC)c1OC` [podophyllotoxin, reference compound] returned an IC50 in data set [2] of 0.007 ± 0.001 µg/mL (≈ 0.0169 µM).
`Nc1nc(N)nc(Nc2ccc([As]3SCC(CO)S3)cc2)n1` (stereo not drawn) [melarsoprol, reference compound]: the IC50 in data set [3] (Trypanosoma brucei, read-out: IC50 Tbr (crude extracts)) is 0.003 ± 0.001 µg/mL.
Take 11,13-Dihydrovernodalin [Compound 6]: in data set [5], the “IC50 P. falciparum PoW” value is listed as 2.3 µg/mL. Moreover, the “IC50 P. falciparum Dd2” value in data set [6] is listed as 1.1 µg/mL.
Turning to `C=C[C@@]12COC(=O)C(=C)[C@@H]1[C@H]1OC(=O)C(=C)[C@@H]1[C@@H](OC(=O)C(=C)CO)C2` [Compound 5, Vernodalin], the “IC50 anti-plasmodial activity, P. falciparum K1” value in data set [4] was 4.0 µg/mL (≈ 11.1 µM).
Turning to `CCCCCCCCCCCCCCCCOP(=O)([O-])OCC[N+](C)(C)C` [miltefosine], in data set [7], the IC50 was 0.091 ± 0.07 µg/mL (≈ 0.223 µM).

These data come from paper PMC6154322, “Anti-Trypanosomatid Elemanolide Sesquiterpene Lactones from Vernonia lasiopus O. Hoffm ^†” (Molecules : A Journal of Synthetic Chemistry and Natural …, 2017).
